Series [1] in a line: Cytotoxicity against human HL7702 cells assessed as reduction in cell viability incubated for 48 hrs by MTT assay. It counts as toxicity, cell-based. To be noted: HL7702 (L02) cells. Background: Formazan colour is commonly taken as a measure of viable cells.
Another series concerns NCI-H446. The series can be described thus: Antiproliferative activity against human NCI-H446 cells assessed as reduction in cell viability incubated for 48 hrs by MTT assay. In kind it is functional, cell-based. To be noted: NCI-H446, 48 h.
The next series has as its system HepG2. The series can be described thus: Antiproliferative activity against human HepG2 cells assessed as reduction in cell viability incubated for 48 hrs by MTT assay. In kind it is functional, cell-based. To be noted: HepG2, 48 h.
The nature of series [2]: Cytotoxicity against HBE (human bronchial epithelial) cells assessed as reduction in cell viability incubated for 48 hrs by MTT assay. In kind it is toxicity, cell-based.
The test system of a further series is A549. The experiment in a line: Antiproliferative activity against human A549 cells assessed as reduction in cell viability incubated for 48 hrs by MTT assay. In kind it is functional, cell-based. To be noted: A549, 48 h.

This is an account of results in ChEMBL document CHEMBL5543068, “Mitochondrial targeting derivatives of honokiol enhanced selective antitumor activity in NCI-H446 cells and decreased in vivo toxicity in Caenorhabditis elegans” (Eur J Med Chem, 2024).

The structures appear in SMILES notation.

As usually defined, the IC50 is the midpoint of a concentration-inhibition curve. As to `C=CCc1ccc(OC(=O)Cc2c3[n+](cc4c(OC)c(OC)ccc24)CCc2cc4c(cc2-3)OCO4)c(-c2ccc(OC)c(CC=C)c2)c1`, the IC50 at 48 h in series [1] turned out to be 5 µM; in series [2] it was 8.14 µM. Besides, the IC50 in the series on NCI-H446 came to 3.22 µM; in the series with HepG2, 2670 nM; with A549, 5.52 µM.
On the same counts, the results for `C=CCc1ccc(OCCC)c(-c2ccc(OCCCOC(=O)Cc3c4[n+](cc5c(OC)c(OC)ccc35)CCc3cc5c(cc3-4)OCO5)c(CC=C)c2)c1` are 3.39 µM, 6.7 µM, 2.44 µM, 2230 nM and 3.5 µM.
On the same counts, the results for `C[n+]1ccc(/C=C/c2c[nH]c3ccccc23)cc1` are greater than 60 µM, greater than 60 µM, greater than 60 µM, greater than 60000 nM and greater than 60 µM.
On the same counts, the results for `C=CCc1ccc(OCCCCCCOC(=O)Cc2c3[n+](cc4c(OC)c(OC)ccc24)CCc2cc4c(cc2-3)OCO4)c(-c2ccc(OC)c(CC=C)c2)c1` are 5.7 µM, 7.06 µM, 3.37 µM, 2390 nM and 3.44 µM.
Consider `C=CCc1ccc(OC)c(-c2ccc(OCCCCCCCCCC[n+]3ccc(/C=C/c4c[nH]c5ccccc45)cc3)c(CC=C)c2)c1`, for which the figures for the 50% inhibitory concentration (IC50) at 48 h in series [1] and in series [2] were 7.09 µM and 13.5 µM, respectively. For the same compound, the IC50 in the series on NCI-H446 was 5.21 µM; with HepG2 it was 2730 nM; with A549 it was 10.6 µM.
On the same counts, the results for `C=CCc1ccc(OC)c(-c2ccc(OCCC[n+]3ccc(/C=C/c4c[nH]c5ccccc45)cc3)c(CC=C)c2)c1` are 8.12 µM, 20.4 µM, 6.34 µM, 4530 nM and 5.32 µM.
For the compound `C=CCc1ccc(OCCCCCC[n+]2ccc(/C=C/c3c[nH]c4ccccc34)cc2)c(-c2ccc(OCCC)c(CC=C)c2)c1`, the IC50 at 48 h in series [1] is 2.34 µM; in series [2] it was 11.1 µM. Moreover, the IC50 with NCI-H446 was 3.28 µM; in the series on HepG2, 2350 nM; with A549 it was 4.93 µM.
On to `COc1ccc2cc3[n+](cc2c1OC)CCc1cc2c(cc1-3)OCO2` [BERBERINE CHLORIDE], for which the IC50 at 48 h in series [1] and in series [2] was greater than 50 µM each time. Besides, the IC50 in the series with NCI-H446 was greater than 50 µM; in the series on HepG2 it was greater than 50000 nM; in the series on A549, greater than 50 µM.
Regarding `C=CCc1ccc(OC)c(-c2ccc(OCCCCCCCCCCOC(=O)Cc3c4[n+](cc5c(OC)c(OC)ccc35)CCc3cc5c(cc3-4)OCO5)c(CC=C)c2)c1`, the figures for the IC50 at 48 h in series [1] and in series [2] were 2.01 µM and 5.01 µM, respectively. In addition, the IC50 with NCI-H446 amounted to 1.57 µM; in the series on HepG2, 2400 nM; with A549, 2.7 µM.
Regarding `C=CCc1ccc(OCCC)c(-c2ccc(OCCCCCCOC(=O)Cc3c4[n+](cc5c(OC)c(OC)ccc35)CCc3cc5c(cc3-4)OCO5)c(CC=C)c2)c1`, the half-inhibitory concentration (IC50) at 48 h worked out at 4.28 µM in series [1] and 3.59 µM in series [2]. Besides, the IC50 in the series on NCI-H446 turned out to be 1.56 µM; in the series with HepG2, 1380 nM; with A549, 1.59 µM.
On the same counts, the results for `C=CCc1ccc(OCCCCCCOC(=O)Cc2c3[n+](cc4c(OC)c(OC)ccc24)CCc2cc4c(cc2-3)OCO4)c(-c2ccc(OCCC)c(CC=C)c2)c1` are 5.7 µM, 7.08 µM, 2.37 µM, 1820 nM and 3.41 µM.
`C=CCc1ccc(OCCCCCCCCCCOC(=O)Cc2c3[n+](cc4c(OC)c(OC)ccc24)CCc2cc4c(cc2-3)OCO4)c(-c2ccc(OC)c(CC=C)c2)c1`: the results for the IC50 at 48 h in series [1] and in series [2] were 5 µM and 5.83 µM, respectively. Moreover, the IC50 in the series with NCI-H446 amounted to 3.01 µM; in the series on HepG2, 1940 nM; with A549, 1.88 µM.
On the same counts, the results for `C=CCc1ccc(OCCC)c(-c2ccc(OC(=O)Cc3c4[n+](cc5c(OC)c(OC)ccc35)CCc3cc5c(cc3-4)OCO5)c(CC=C)c2)c1` are 3.39 µM, 17.9 µM, 5.06 µM, 3020 nM and 5.98 µM.
On the same counts, the results for `C=CCc1ccc(OC(=O)Cc2c3[n+](cc4c(OC)c(OC)ccc24)CCc2cc4c(cc2-3)OCO4)c(-c2ccc(OCCC)c(CC=C)c2)c1` are 3.8 µM, 7.08 µM, 5.17 µM, 2230 nM and 4.12 µM.
On the same counts, the results for `C=CCc1ccc(OCCCCCC[n+]2ccc(/C=C/c3c[nH]c4ccccc34)cc2)c(-c2ccc(OC)c(CC=C)c2)c1` are 3.88 µM, 6.17 µM, 2.7 µM, 1790 nM and 2.54 µM.
`C=CCc1ccc(OC)c(-c2ccc(OC(=O)Cc3c4[n+](cc5c(OC)c(OC)ccc35)CCc3cc5c(cc3-4)OCO5)c(CC=C)c2)c1`: the IC50 at 48 h was 4.21 µM in series [1] and 16.1 µM in series [2]. The IC50 was determined as 4.72 µM with NCI-H446, 2850 nM with HepG2 and 5.5 µM with A549.
On the same counts, the results for `CCCCCCCCCCc1c2[n+](cc3c(OC)c(OC)ccc13)CCc1cc3c(cc1-2)OCO3` are 3.8 µM, 1.52 µM, 0.83 µM, 13300 nM and 1.18 µM.
Regarding `C=CCc1ccc(OCCC)c(-c2ccc(OCCCCCCCCCCOC(=O)Cc3c4[n+](cc5c(OC)c(OC)ccc35)CCc3cc5c(cc3-4)OCO5)c(CC=C)c2)c1`, the IC50 at 48 h in series [1] was determined as 4.39 µM; in series [2] it was 10.7 µM. Besides, the values for the IC50 in the series with NCI-H446, in the series on HepG2 and in the series with A549 were 7.87 µM, 7890 nM and 6.21 µM, respectively.
Taken in the same sequence, the figures for `C=CCc1ccc(OCCCOC(=O)Cc2c3[n+](cc4c(OC)c(OC)ccc24)CCc2cc4c(cc2-3)OCO4)c(-c2ccc(OC)c(CC=C)c2)c1` were 6.5 µM, 19.4 µM, 7.08 µM, 6600 nM and greater than 10 µM.
Take `C=CCc1ccc(OCCC[n+]2ccc(/C=C/c3c[nH]c4ccccc34)cc2)c(-c2ccc(OC)c(CC=C)c2)c1`: the IC50 at 48 h in series [1] was determined as 4.62 µM; in series [2], 9.84 µM. Besides, the IC50 in the series on NCI-H446 worked out at 3.29 µM; in the series on HepG2, 1750 nM; with A549 it was 3.27 µM.
Consider `CCCCCCCCCCCCc1c2[n+](cc3c(OC)c(OC)ccc13)CCc1cc3c(cc1-2)OCO3`, for which the IC50 at 48 h was determined as 2.78 µM in series [1] and 1.23 µM in series [2]. Moreover, the IC50 amounted to 0.65 µM with NCI-H446, 2720 nM with HepG2 and 0.86 µM in the series with A549.
On to `CCCCCCCCCCOC(=O)Cc1c2[n+](cc3c(OC)c(OC)ccc13)CCc1cc3c(cc1-2)OCO3`, for which the IC50 at 48 h in series [1] came to 3.83 µM; in series [2], 4.35 µM. The IC50 in the series with NCI-H446 was 1.72 µM; with HepG2 it was 4230 nM; in the series with A549, 1.53 µM.
For the compound `C=CCc1ccc(OC)c(-c2ccc(OCCCCCC[n+]3ccc(/C=C/c4c[nH]c5ccccc45)cc3)c(CC=C)c2)c1`, the IC50 at 48 h was 3.56 µM in series [1] and 20.4 µM in series [2]. For the same compound, the 50% inhibitory concentration (IC50) in the series on NCI-H446 was 3.02 µM; with HepG2, 2680 nM; in the series with A549, 3.38 µM.
Turning to `C=CCc1ccc(OCCC[n+]2ccc(/C=C/c3c[nH]c4ccccc34)cc2)c(-c2ccc(OCCC)c(CC=C)c2)c1`, the IC50 at 48 h in series [1] stood at 1.77 µM; in series [2], 9.47 µM. For the same compound, the figures for the 50% inhibitory concentration (IC50) with NCI-H446, with HepG2 and in the series with A549 were 1.74 µM, 1140 nM and 1.69 µM, respectively.
Taken in the same sequence, the figures for `C=CCc1ccc(OCCCOC(=O)Cc2c3[n+](cc4c(OC)c(OC)ccc24)CCc2cc4c(cc2-3)OCO4)c(-c2ccc(OCCC)c(CC=C)c2)c1` were 2.6 µM, 9.5 µM, 3.74 µM, 3870 nM and 5.82 µM.
`C=CCc1ccc(OCCCCCCCCCCOC(=O)Cc2c3[n+](cc4c(OC)c(OC)ccc24)CCc2cc4c(cc2-3)OCO4)c(-c2ccc(OCCC)c(CC=C)c2)c1`: the half-inhibitory concentration (IC50) at 48 h in series [1] is 3.96 µM; in series [2], 17.5 µM. Also, the IC50 in the series on NCI-H446 was found to be 5.45 µM; in the series on HepG2, 4160 nM; in the series on A549 it was 4.32 µM.
Taken in the same sequence, the figures for `CCCCCCCCc1c2[n+](cc3c(OC)c(OC)ccc13)CCc1cc3c(cc1-2)OCO3` were 14.7 µM, 0.79 µM, 2.65 µM, 18700 nM and 1.72 µM.
On the same counts, the results for `CCCCCCOC(=O)Cc1c2[n+](cc3c(OC)c(OC)ccc13)CCc1cc3c(cc1-2)OCO3` are 19 µM, 10.6 µM, 13 µM, greater than 10000 nM and 6.11 µM.
For `C=CCc1ccc(OCCCCCCCCCC[n+]2ccc(/C=C/c3c[nH]c4ccccc34)cc2)c(-c2ccc(OC)c(CC=C)c2)c1`, the 50% inhibitory concentration (IC50) at 48 h in series [1] stood at 4.03 µM; in series [2], 7.47 µM. Besides, the half-maximal inhibitory concentration (IC50) in the series with NCI-H446 was 3.01 µM; in the series with HepG2, 3370 nM; in the series with A549 it was 5.69 µM.
Taken in the same sequence, the figures for `C=CCc1ccc(OCCC)c(-c2ccc(OCCCCCCCCCC[n+]3ccc(/C=C/c4c[nH]c5ccccc45)cc3)c(CC=C)c2)c1` were 12.3 µM, 16.5 µM, 6.51 µM, 8130 nM and 9.45 µM.
Consider `CCCOC(=O)Cc1c2[n+](cc3c(OC)c(OC)ccc13)CCc1cc3c(cc1-2)OCO3`, for which the concentration for half-maximal inhibition (IC50) at 48 h in series [1] and in series [2] was greater than 30 µM in each case. The IC50 in the series on NCI-H446 is greater than 10 µM; in the series on HepG2, greater than 30000 nM; with A549 it was 15.9 µM.
